{"source": "paper PMC7827406", "about": "“Structure–Activity Relationship (SAR) Study of Spautin-1 to Entail the Discovery of Novel NEK4 Inhibitors” (International Journal of Molecular Sciences, 2021)", "assay_in_all_cases": "biochemical", "parameters_in_all_cases": "Eurofins KinaseProfiler full panel at Km ATP, residual kinase activity (%) relative to DMSO", "key": {"BRK(h)": {"target": "T1, BRK(h) (Homo sapiens, UniProt Q13882)", "T1 construct": "gene PTK6", "procedure,_shortened": "(§1)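 Compounds screened at 10 µM in radiometric kinase activity assays at Km ATP, reported as remaining kinase activity (%). A KINOMEscan competition-binding screen at 10 µM measured DNA-tagged kinase retained on immobilized active-site ligand by qPCR.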"}, "BTK(h)": {"target": "BTK(h) (Homo sapiens, UniProt Q06187)", "procedure,_shortened": "as §1"}, "CDK16/cyclinY(h)": {"target": "CDK16/cyclinY(h) (Homo sapiens, UniProt Q00536)", "procedure,_shortened": "as §1"}, "CK1δ(h)": {"target": "T2, CK1δ(h) (Homo sapiens, UniProt P48730)", "T2 construct": "gene CSNK1D", "T2 sequence (P48730 whole entry)": "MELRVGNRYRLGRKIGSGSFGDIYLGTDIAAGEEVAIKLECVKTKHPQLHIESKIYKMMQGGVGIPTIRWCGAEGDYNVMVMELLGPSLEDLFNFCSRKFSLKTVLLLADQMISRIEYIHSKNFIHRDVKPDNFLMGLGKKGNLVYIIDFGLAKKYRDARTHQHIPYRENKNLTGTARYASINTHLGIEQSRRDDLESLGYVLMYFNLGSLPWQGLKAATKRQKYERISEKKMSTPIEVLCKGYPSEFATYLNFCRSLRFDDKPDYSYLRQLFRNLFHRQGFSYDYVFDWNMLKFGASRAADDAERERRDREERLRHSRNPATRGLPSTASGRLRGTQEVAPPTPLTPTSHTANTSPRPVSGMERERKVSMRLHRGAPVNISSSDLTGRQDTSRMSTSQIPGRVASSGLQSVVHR", "procedure,_shortened": "as §1"}, "ErbB4(h)": {"target": "ErbB4(h) (Homo sapiens, UniProt Q15303)", "sequence (Q15303 whole entry)": "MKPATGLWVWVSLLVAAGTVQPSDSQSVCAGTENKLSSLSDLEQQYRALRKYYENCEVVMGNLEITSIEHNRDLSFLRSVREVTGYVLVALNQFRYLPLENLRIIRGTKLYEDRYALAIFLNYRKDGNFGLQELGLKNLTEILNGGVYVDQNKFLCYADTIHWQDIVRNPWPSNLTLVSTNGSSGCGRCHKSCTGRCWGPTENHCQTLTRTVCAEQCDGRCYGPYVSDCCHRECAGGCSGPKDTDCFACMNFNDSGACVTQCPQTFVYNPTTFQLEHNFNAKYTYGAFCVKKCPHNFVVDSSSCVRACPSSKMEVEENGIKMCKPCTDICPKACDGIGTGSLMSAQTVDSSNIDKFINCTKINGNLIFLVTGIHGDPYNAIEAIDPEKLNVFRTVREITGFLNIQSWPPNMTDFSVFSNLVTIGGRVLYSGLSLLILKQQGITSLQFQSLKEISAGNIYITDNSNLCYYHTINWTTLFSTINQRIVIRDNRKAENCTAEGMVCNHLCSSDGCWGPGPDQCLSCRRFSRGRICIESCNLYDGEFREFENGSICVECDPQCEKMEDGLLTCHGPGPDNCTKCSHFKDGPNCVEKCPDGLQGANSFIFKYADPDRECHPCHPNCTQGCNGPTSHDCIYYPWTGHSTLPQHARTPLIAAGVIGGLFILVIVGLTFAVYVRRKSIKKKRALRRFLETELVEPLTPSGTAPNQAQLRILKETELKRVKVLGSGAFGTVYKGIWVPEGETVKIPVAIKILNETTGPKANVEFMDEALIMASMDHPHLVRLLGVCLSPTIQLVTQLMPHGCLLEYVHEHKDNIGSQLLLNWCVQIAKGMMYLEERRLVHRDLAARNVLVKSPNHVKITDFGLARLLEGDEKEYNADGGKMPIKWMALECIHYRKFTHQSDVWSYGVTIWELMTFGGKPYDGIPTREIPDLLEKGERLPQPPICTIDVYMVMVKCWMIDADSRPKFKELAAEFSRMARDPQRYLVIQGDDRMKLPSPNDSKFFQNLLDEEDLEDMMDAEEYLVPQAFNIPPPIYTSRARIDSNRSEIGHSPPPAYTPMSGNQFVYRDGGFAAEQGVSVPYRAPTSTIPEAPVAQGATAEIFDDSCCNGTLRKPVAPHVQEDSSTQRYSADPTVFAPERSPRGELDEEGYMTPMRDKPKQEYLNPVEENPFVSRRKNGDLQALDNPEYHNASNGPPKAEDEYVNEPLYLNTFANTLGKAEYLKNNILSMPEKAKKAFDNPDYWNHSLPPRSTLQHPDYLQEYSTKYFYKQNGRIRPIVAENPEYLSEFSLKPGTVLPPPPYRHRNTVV", "procedure,_shortened": "as §1"}, "HIPK4(h)": {"target": "T3, HIPK4(h) (Homo sapiens, UniProt Q8NE63)", "T3 sequence (Q8NE63 1-616)": "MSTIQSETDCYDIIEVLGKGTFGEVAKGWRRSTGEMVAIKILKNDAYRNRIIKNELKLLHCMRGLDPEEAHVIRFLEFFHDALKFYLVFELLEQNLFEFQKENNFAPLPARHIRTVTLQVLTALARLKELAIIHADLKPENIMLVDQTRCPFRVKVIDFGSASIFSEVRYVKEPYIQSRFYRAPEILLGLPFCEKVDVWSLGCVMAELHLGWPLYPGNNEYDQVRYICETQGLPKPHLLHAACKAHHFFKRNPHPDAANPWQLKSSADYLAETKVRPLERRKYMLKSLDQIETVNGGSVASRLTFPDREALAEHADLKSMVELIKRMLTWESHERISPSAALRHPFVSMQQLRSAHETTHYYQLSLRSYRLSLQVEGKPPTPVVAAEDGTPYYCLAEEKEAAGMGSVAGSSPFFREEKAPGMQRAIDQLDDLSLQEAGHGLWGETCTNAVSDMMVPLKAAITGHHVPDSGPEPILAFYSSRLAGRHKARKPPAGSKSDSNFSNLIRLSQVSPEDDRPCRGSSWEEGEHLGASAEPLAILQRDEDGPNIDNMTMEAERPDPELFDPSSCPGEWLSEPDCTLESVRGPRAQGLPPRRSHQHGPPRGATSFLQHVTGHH", "procedure,_shortened": "as §1"}, "NDR1(h)": {"target": "T4, NDR1(h) (Homo sapiens, UniProt Q15208)", "T4 construct": "gene STK38", "T4 sequence (Q15208 whole entry)": "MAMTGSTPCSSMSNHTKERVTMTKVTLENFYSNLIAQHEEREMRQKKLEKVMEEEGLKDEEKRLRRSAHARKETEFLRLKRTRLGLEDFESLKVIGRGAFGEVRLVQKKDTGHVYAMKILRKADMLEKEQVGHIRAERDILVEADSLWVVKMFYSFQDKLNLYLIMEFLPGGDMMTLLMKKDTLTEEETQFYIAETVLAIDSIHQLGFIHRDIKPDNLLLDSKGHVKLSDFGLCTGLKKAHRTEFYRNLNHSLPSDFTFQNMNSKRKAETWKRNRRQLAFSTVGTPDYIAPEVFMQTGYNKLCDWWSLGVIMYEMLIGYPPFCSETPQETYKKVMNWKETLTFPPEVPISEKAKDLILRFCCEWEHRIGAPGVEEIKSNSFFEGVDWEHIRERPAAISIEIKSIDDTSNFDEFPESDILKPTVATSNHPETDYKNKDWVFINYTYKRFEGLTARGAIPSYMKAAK", "procedure,_shortened": "as §1"}, "PASK(h)": {"target": "PASK(h) (Homo sapiens, UniProt Q96RG2)", "procedure,_shortened": "as §1"}, "[1]": {"target": "T5, PI3 Kinase (p110b/p85a)(m) (Mus musculus, UniProt Q8BTI9)", "T5 construct": "gene Pik3cb", "T5 sequence (Q8BTI9 whole entry)": "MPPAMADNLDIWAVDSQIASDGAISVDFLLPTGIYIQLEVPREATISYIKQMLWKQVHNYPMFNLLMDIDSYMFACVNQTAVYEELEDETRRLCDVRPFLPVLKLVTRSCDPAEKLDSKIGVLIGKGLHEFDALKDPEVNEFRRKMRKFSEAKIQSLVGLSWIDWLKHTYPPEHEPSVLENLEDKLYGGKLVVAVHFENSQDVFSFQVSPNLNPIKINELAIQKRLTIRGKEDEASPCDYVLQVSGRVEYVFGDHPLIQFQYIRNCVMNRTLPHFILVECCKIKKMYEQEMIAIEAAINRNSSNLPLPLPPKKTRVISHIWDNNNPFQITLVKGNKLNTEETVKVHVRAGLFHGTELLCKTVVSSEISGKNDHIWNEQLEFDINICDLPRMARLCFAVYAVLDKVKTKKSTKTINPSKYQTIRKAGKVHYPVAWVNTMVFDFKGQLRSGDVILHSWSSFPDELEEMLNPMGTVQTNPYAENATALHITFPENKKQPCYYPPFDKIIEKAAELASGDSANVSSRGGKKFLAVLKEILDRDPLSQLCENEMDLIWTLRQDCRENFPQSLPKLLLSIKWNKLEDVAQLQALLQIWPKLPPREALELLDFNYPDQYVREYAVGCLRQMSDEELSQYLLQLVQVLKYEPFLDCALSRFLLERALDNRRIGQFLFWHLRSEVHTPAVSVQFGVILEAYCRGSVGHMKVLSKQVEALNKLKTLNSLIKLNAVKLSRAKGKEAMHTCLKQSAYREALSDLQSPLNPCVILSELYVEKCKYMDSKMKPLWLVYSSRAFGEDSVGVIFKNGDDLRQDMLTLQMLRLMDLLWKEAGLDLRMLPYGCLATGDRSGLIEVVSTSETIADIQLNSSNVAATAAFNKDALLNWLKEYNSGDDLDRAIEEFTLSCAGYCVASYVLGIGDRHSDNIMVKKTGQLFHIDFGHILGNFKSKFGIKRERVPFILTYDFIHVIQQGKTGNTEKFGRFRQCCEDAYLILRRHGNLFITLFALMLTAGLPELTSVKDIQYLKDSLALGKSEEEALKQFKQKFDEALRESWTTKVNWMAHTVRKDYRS", "T5 sequence (P26450 whole entry partner)": "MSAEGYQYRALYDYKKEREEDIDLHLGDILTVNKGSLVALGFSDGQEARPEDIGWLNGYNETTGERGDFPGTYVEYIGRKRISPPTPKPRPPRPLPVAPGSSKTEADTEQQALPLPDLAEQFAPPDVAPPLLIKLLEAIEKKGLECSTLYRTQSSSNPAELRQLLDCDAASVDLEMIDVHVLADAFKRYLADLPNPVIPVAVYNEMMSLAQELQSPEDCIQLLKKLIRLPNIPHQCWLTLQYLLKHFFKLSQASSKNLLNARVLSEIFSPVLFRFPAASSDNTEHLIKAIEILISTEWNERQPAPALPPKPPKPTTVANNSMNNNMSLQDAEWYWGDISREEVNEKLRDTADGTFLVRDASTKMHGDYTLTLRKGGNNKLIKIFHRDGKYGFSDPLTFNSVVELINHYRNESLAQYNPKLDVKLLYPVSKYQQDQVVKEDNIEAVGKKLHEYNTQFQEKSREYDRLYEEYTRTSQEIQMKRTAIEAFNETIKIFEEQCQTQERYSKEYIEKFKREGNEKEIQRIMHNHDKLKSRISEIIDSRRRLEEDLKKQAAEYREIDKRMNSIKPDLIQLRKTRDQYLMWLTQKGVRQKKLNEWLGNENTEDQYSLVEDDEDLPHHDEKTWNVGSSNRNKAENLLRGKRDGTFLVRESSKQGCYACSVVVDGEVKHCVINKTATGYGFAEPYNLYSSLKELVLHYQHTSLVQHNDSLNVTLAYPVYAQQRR", "procedure,_shortened": "as §1"}, "RIPK2(h)": {"target": "RIPK2(h) (Homo sapiens, UniProt O43353)", "sequence (O43353 whole entry)": "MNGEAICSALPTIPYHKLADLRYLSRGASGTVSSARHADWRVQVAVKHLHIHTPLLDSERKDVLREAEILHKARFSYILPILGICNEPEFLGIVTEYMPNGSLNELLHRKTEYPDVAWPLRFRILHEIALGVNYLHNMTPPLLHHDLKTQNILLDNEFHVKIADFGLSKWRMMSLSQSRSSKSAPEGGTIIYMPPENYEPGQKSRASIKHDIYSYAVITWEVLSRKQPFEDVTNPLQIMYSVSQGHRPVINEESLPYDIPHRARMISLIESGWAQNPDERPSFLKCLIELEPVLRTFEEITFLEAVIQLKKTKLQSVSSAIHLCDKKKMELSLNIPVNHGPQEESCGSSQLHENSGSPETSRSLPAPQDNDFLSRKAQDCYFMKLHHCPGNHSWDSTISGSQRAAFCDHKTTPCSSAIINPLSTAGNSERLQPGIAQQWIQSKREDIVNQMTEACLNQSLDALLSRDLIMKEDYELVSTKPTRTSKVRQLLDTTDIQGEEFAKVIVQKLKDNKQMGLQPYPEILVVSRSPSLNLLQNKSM", "procedure,_shortened": "as §1"}, "TNIK(h)": {"target": "TNIK(h) (Homo sapiens, UniProt Q9UKE5)", "procedure,_shortened": "as §1"}, "ZIPK(h)": {"target": "T6, ZIPK(h) (Homo sapiens, UniProt O43293)", "T6 construct": "gene DAPK3", "T6 sequence (O43293 whole entry)": "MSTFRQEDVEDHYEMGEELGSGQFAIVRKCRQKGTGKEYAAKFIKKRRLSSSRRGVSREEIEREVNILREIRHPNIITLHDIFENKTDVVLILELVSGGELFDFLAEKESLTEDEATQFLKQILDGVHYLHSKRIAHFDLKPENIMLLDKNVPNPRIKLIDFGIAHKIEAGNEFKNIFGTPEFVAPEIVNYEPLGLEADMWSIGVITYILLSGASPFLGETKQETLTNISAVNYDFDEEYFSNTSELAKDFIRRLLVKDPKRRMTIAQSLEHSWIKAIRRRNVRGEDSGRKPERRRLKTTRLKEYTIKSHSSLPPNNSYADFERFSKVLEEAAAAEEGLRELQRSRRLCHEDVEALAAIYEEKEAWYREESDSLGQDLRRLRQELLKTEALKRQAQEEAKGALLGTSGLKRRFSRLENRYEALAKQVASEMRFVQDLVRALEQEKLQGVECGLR", "procedure,_shortened": "as §1"}, "[2]": {"conditions": "read-out: Residual activity (%) Spautin-1 5aa"}, "[3]": {"conditions": "read-out: Residual activity (%) 5as"}, "[4]": {"conditions": "read-out: Residual activity (%) 5at"}, "[5]": {"conditions": "read-out: Residual activity (%) 5ay"}}, "note": "Where two headings read alike, the source gives them in different places."}
{"smiles": "Fc1ccc(CNc2ncnc3ccc(F)cc23)cc1", "note": "[5aa, 6-Fluoro-N-(4-fluorobenzyl)-4-Quinazolinamine]", "values": [{"measurement": "remaining activity at 10 µM", "setting": "BRK(h); [2]", "value": 105, "unit": "%"}, {"measurement": "remaining activity at 10 µM", "setting": "BTK(h); [2]", "value": 123, "unit": "%"}, {"measurement": "remaining activity at 10 µM", "setting": "CDK16/cyclinY(h); [2]", "value": 90, "unit": "%"}, {"measurement": "remaining activity at 10 µM", "setting": "CK1δ(h); [2]", "value": 74, "unit": "%"}, {"measurement": "remaining activity at 10 µM", "setting": "ErbB4(h); [2]", "value": 90, "unit": "%"}, {"measurement": "remaining activity at 10 µM", "setting": "HIPK4(h); [2]", "value": 103, "unit": "%"}, {"measurement": "remaining activity at 10 µM", "setting": "NDR1(h); [2]", "value": 108, "unit": "%"}, {"measurement": "remaining activity at 10 µM", "setting": "PASK(h); [2]", "value": 66, "unit": "%"}, {"measurement": "remaining activity at 10 µM", "setting": "[1]; [2]", "value": 102, "unit": "%"}, {"measurement": "remaining activity at 10 µM", "setting": "RIPK2(h); [2]", "value": 82, "unit": "%"}, {"measurement": "remaining activity at 10 µM", "setting": "TNIK(h); [2]", "value": 72, "unit": "%"}, {"measurement": "remaining activity at 10 µM", "setting": "ZIPK(h); [2]", "value": 97, "unit": "%"}]}
{"smiles": "Fc1ccc(CCNc2ncnc3ccc(F)cc23)cc1", "note": "[5as, 6-Fluoro-N-[2-(4-Fluorophenyl)Ethyl]-4-Quinazolinamine]", "values": [{"measurement": "remaining activity at 10 µM", "setting": "BRK(h); [3]", "value": 87, "unit": "%"}, {"measurement": "remaining activity at 10 µM", "setting": "BTK(h); [3]", "value": 113, "unit": "%"}, {"measurement": "remaining activity at 10 µM", "setting": "CDK16/cyclinY(h); [3]", "value": 114, "unit": "%"}, {"measurement": "remaining activity at 10 µM", "setting": "CK1δ(h); [3]", "value": 80, "unit": "%"}, {"measurement": "remaining activity at 10 µM", "setting": "ErbB4(h); [3]", "value": 84, "unit": "%"}, {"measurement": "remaining activity at 10 µM", "setting": "HIPK4(h); [3]", "value": 92, "unit": "%"}, {"measurement": "remaining activity at 10 µM", "setting": "NDR1(h); [3]", "value": 96, "unit": "%"}, {"measurement": "remaining activity at 10 µM", "setting": "PASK(h); [3]", "value": 44, "unit": "%"}, {"measurement": "remaining activity at 10 µM", "setting": "[1]; [3]", "value": 98, "unit": "%"}, {"measurement": "remaining activity at 10 µM", "setting": "RIPK2(h); [3]", "value": 86, "unit": "%"}, {"measurement": "remaining activity at 10 µM", "setting": "TNIK(h); [3]", "value": 83, "unit": "%"}, {"measurement": "remaining activity at 10 µM", "setting": "ZIPK(h); [3]", "value": 103, "unit": "%"}]}
{"smiles": "Fc1ccc2ncnc(NCCc3ccc(Cl)cc3)c2c1", "note": "[5at, N-[2-(4-Chlorophenyl)Ethyl]-6-Fluoro-4-Quinazolinamine]", "values": [{"measurement": "remaining activity at 10 µM", "setting": "BRK(h); [4]", "value": 96, "unit": "%"}, {"measurement": "remaining activity at 10 µM", "setting": "BTK(h); [4]", "value": 96, "unit": "%"}, {"measurement": "remaining activity at 10 µM", "setting": "CDK16/cyclinY(h); [4]", "value": 104, "unit": "%"}, {"measurement": "remaining activity at 10 µM", "setting": "CK1δ(h); [4]", "value": 80, "unit": "%"}, {"measurement": "remaining activity at 10 µM", "setting": "ErbB4(h); [4]", "value": 79, "unit": "%"}, {"measurement": "remaining activity at 10 µM", "setting": "HIPK4(h); [4]", "value": 93, "unit": "%"}, {"measurement": "remaining activity at 10 µM", "setting": "NDR1(h); [4]", "value": 89, "unit": "%"}, {"measurement": "remaining activity at 10 µM", "setting": "PASK(h); [4]", "value": 30, "unit": "%"}, {"measurement": "remaining activity at 10 µM", "setting": "[1]; [4]", "value": 101, "unit": "%"}, {"measurement": "remaining activity at 10 µM", "setting": "RIPK2(h); [4]", "value": 86, "unit": "%"}, {"measurement": "remaining activity at 10 µM", "setting": "TNIK(h); [4]", "value": 63, "unit": "%"}, {"measurement": "remaining activity at 10 µM", "setting": "ZIPK(h); [4]", "value": 109, "unit": "%"}]}
{"smiles": "COc1ccc2ncnc(Nc3cccc(F)c3)c2c1", "note": "[5ay, N-(3-Fluorophenyl)-6-Methoxy-4-Quinazolinamine]", "values": [{"measurement": "remaining activity at 10 µM", "setting": "BRK(h); [5]", "value": 71, "unit": "%"}, {"measurement": "remaining activity at 10 µM", "setting": "BTK(h); [5]", "value": 126, "unit": "%"}, {"measurement": "remaining activity at 10 µM", "setting": "CDK16/cyclinY(h); [5]", "value": 81, "unit": "%"}, {"measurement": "remaining activity at 10 µM", "setting": "CK1δ(h); [5]", "value": 86, "unit": "%"}, {"measurement": "remaining activity at 10 µM", "setting": "ErbB4(h); [5]", "value": 74, "unit": "%"}, {"measurement": "remaining activity at 10 µM", "setting": "HIPK4(h); [5]", "value": 42, "unit": "%"}, {"measurement": "remaining activity at 10 µM", "setting": "NDR1(h); [5]", "value": 98, "unit": "%"}, {"measurement": "remaining activity at 10 µM", "setting": "PASK(h); [5]", "value": 65, "unit": "%"}, {"measurement": "remaining activity at 10 µM", "setting": "[1]; [5]", "value": 99, "unit": "%"}, {"measurement": "remaining activity at 10 µM", "setting": "RIPK2(h); [5]", "value": 22, "unit": "%"}, {"measurement": "remaining activity at 10 µM", "setting": "TNIK(h); [5]", "value": 65, "unit": "%"}, {"measurement": "remaining activity at 10 µM", "setting": "ZIPK(h); [5]", "value": 108, "unit": "%"}]}
